Results: US9364480B2, “Pharmaceutical composition for preventing or treating cancer, containing enoblock as active ingredient” (GWANGJU INSTITUTE OF SCIENCE AND TECHNOLOGY, priority 2012, dated 2016)
“Also recorded” adds a separate entry of the source.

What was measured:
[1] = system: HEK kidney cells; assay: Glucose uptake with fluorescent glucose probe 2-NBDG, kidney cells; assay type: cell-based; settings: 10 μM, 24 h
[2] = system: HCT116 colon carcinoma cells; assay: Screening for apoptosis inducers effective under hypoxia (MTT cytotoxicity, hypoxia vs normoxia); assay type: cell-based
Procedure: FIG. 1. Discovery of compound AP-III-a4 (ENOblock). (a) Schematic of the screening system used to detect apoptosis inducers effective under hypoxia. HCT116 cancer cells were seeded in parallel 96-well culture plates. Hypoxia was induced in one plate using 150 μM cobalt chloride treatment. Triazine library compound at 5 μM concentration was added 4 h later, and cell death was determined 24 h after hypoxia induction. […] (b) Chemical structures of AP-III-a4 (ENOblock) and the control compounds, AP-IV-e3 and AP-I-f10. Chemical structures of GAPDS, which targets glyceraldehyde 3-phosphate dehydrogenase (GAPDH), and rosiglitazone, a well-known anti-diabetes drug, are also shown. […] Error=SD; *=P value<0.05 for increased cell death compared to normoxia. P value: hypox 10=1.23×10^−6; hypox 5=2.38×10^−6; hypox 2.5=1.16×10^−5; hypox 1.25=0.000334. (d) Representative phase contrast microscopic images of HCT116 colon cancer cells treated with ENOblock under normoxia or hypoxia.
HCT116 colon carcinoma cells were seeded in 2 sets of 96 well plates at a density of 5×10^3 cells per well. ‘Low glucose’ DMEM (containing 5 mM glucose; Invitrogen, OR, USA) was used for screening, because glycolysis inhibitors, such as 2-Deoxy-D-glucose (2-DG), are effective by competing with glucose. 24 h later, the hypoxic condition was induced in one set of 96 well plates by treatment with 150 μM of 0.22 μm filtered CoCl2 and the culture media volume was reduced by 50% (to 100 μL/well), as previously described.^49 4 h later, test compounds from a tagged triazine library^5 were screened at a concentration of 5 μM in duplicate wells. Cytotoxicity was determined by MTT assay 24 h after adding drug. ‘Hits’ for further analysis were classified as compounds that 25% or higher cytotoxicity in the hypoxia condition compared to the normoxia condition (as measured by MTT assay absorbance). 50 μM 2-DG, an inhibitor of glycolysis that selectively kills cancer cells in hypoxic conditions^50, was used as a positive control.
We developed a novel, dual screening system to identify molecules that preferentially kill cancer cells in a hypoxic environment (FIG. 1). A small molecule library of 384 triazines prepared on a solid support5 (5; FIG. 3) was screened. A “hit” molecule was defined as an inducer of at least 25% increased cancer cell toxicity in hypoxia compared to normoxia (as determined using the 3-(4,5-dimethylthiazol-2-yl)-2,5-diphenyltetrazolium bromide, a tetrazole (MTT) assay). Five from 384 triazines screened produced greater cancer cell toxicity under hypoxia.

[3] = system: phosphoenolpyruvate carboxykinase (PEPCK) expression in Huh7 hepatocytes; assay: PEPCK expression in hepatocytes; assay type: cell-based; settings: 10 μM, 24 h
Source text: FIG. 10. […] Error=SD; *=P<0.05 compared to the no drug (DMSO-treated) group. […] Error=SD; *=P<0.05 for reduced PEPCK expression compared to the no drug (DMSO-treated) group.

[4] = system: HCT116-xenotransplanted zebrafish; assay: Zebrafish tumor cell xenograft model; assay type: in vivo, zebrafish (Danio rerio)
Source text: FIG. 9. Toxicological study of ENOblock and in vivo analysis of anticancer activity. (A) Toxicological analysis of ENOblock treatment using the zebrafish larvae system. […] (B) Microscopic assessment of […] post fertilization (dfp) zebrafish larvae exposed to increasing doses of ENOblock. […] Error=SD; *=P<0.05 compared to the DMSO treated group. […] DMSO treatment served as a control. Three representative embryos are shown from each experimental group, and distributed cancer cell foci are designated with blue arrows. […] Error=SD; *=P<0.05 compared to the DMSO-treated group.
Zebrafish embryos were obtained using standard mating conditions^53 and staged for cell xenoplantation at 48 h post fertilization. After staining of cancer cells (described below), embryos were de-chorionized using micro-forceps and anesthetized with 0.0016% tricaine and positioned on their right side on a wet 1.0% agarose pad. Tumor cells were detached from culture dishes using 0.05% trypsin-EDTA and washed twice with PBS at room temperature. Cells were stained with 2 μg/ml DiI diluted in PBS and washed four times: once with FBS, twice with PBS and then once with 10% FBS diluted in PBS. Cells were kept on ice before injection. Cancer cells were counted by microscopy, suspended in 10% FBS and 100 cells were injected into the center of the yolk sac using an injector equipped with borosilicate glass capillaries (PV820 pneumatic picopump, World Precision Instruments). Injected embryos were transferred to a 96-well plate (one embryo/well) containing drug of interest diluted in […] E3 media (without methylene blue) and maintained at the pre-selected incubation temperature.

[5] = system: Bcl-Xl expression in HCT116 cancer cells; assay: Bcl-Xl Western blot; assay type: cell-based; settings: 48 h treatment
Procedure: (§1) FIG. 7. […] (b) Microscopic images of crystal violet stained HCT116 cells invaded onto the transwell inserts (scale bar=100 μm). […] (d) Microscopic images of crystal violet stained HCT116 cells migrated onto the transwell inserts (scale bar=100 μm). […] Cells were treated with 10 nM taxol and 10 nM vincristine, with or without 10 μM ENOblock. Error=SD; *=P<0.05 between the groups indicated on the graph. […] For the AKT Western blot, cells were treated with ENOblock for 24 h; for the Bcl-Xl Western blot, cells were treated with ENOblock for 48 h.

[6] = system: pre-adipocytes undergoing adipogenesis; assay: Adipogenesis lipid accumulation (Oil Red O staining); assay type: cell-based
[7] = target: purified human enolase (Homo sapiens, UniProt P06733); assay: Affinity matrix binding of purified enolase (Western blot)
Sequence of purified human enolase (P06733 whole entry): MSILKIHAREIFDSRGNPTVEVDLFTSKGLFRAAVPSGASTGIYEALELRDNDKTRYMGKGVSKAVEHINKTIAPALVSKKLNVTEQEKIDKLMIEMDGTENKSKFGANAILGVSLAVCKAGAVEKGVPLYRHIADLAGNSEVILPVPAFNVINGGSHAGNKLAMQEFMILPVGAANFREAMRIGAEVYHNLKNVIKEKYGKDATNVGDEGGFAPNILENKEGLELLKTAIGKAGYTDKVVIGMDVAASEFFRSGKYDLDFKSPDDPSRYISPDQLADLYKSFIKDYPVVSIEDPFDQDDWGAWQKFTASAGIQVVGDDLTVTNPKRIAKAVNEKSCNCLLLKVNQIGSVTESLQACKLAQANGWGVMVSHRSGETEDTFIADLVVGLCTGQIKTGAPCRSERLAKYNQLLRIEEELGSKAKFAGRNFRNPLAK
Procedure: (§2) FIG. 4. […] (a) Affinity chromatography study for ENOblock in HCT116 cancer cells. […] (b) Sequence identification for the enolase monomer subunit. […] Mascot scores above 100 were deemed to be significant. […] Twenty micrograms of cell lysate from YD-10B oral cancer cells or Huh7 hepatocytes were used as positive controls. […] As a positive control, ENOblock affinity matrix was incubated with 200 μg of HCT 116 cell lysate; 50 μg cell lysate from HCT116 cancer cells was used as a positive control for the enolase antibody.
(§3) Affinity chromatography was used to identify the cellular target for AP-III-a4. Target identification strategies for the triazine library used in this study are relatively straightforward, because the molecules contain a built-in linker moiety. This allows conjugation to an affinity matrix with reduced risk of compromising biological activity.

[8] = system: AKT expression in HCT116 cancer cells; assay: AKT Western blot; assay type: cell-based; settings: 24 h treatment
Procedure: as §1

[9] = target: T1, enolase in HCT116 cancer cell lysate (Homo sapiens, UniProt P06733); assay: Affinity chromatography / Western blot of affinity matrix eluate, cell lysate; assay type: binding
T1 construct: endogenous in cells; host or cells: HCT116 colon carcinoma cells (lysate)
T1 sequence (P06733 2-434): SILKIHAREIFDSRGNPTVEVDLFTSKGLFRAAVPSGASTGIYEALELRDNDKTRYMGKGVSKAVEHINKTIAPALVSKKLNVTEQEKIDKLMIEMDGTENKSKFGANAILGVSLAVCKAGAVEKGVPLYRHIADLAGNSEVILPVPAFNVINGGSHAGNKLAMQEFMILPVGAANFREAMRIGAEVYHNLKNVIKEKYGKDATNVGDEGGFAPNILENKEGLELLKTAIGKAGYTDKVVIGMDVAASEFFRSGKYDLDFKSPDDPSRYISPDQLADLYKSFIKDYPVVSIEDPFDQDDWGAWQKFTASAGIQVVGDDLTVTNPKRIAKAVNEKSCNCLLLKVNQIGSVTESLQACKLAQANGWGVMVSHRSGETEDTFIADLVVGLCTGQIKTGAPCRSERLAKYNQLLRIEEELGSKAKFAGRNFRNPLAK
Procedure: as §2, §3

In the case of `NCCOCCOCCNC(=O)Cc1ccc(Nc2nc(NCc3ccc(F)cc3)nc(NCC3CCCCC3)n2)cc1` [ENOblock], the “glucose uptake (2-NBDG)” value [1] is reported as “induced glucose uptake”, the “cell viability of cancer cells cultured under hypoxia” value ([2]; FIG. 1c-1d) is reported as “reduced cell viability dose-dependently” and the “hit classification in triazine library screen (25% or greater cell death under hypoxia compared to normoxia)” value ([2]; HCT116, 5 μM compound, 24 h, MTT) is reported as “best performing hit molecule”. For the same molecule, the “cell death in hypoxic conditions compared to normoxia” value ([2]; HCT116, hypoxia by 150 μM cobalt chloride, MTT, FIG. 1c) was “higher levels of HCT116 colon cancer cell death in hypoxic conditions (Hypox) compared to normoxia”, the “trypan blue uptake (cell death)” value ([2]; under hypoxia) was “increased trypan blue uptake under hypoxia” and the PEPCK expression [3] was “inhibited expression of PEPCK”. The “number of embryos showing cancer cell migration and metastasis (dissemination) from the yolk sac injection site” value ([4]; 10 μM for 96 h, DMSO control) was “reduced the number of embryos showing migration and metastasis; also recorded: reduced cancer cell dissemination”, the “quantification of xenotransplanted cancer cell microfoci” value ([4]; 10 μM for 96 h, vs DMSO-treated group) was “significantly reduced cancer cell migration and metastasis” and the “viability of xenotransplanted cancer cells” value ([4]; normoxia) was “without noticeably affecting cancer cell viability”. The Bcl-Xl expression [5] was “decreased the expression of AKT and Bcl-Xl”, the “lipid accumulation during adipogenesis (Oil Red O, microscopy)” value ([6]; 10 μM) was “inhibited lipid accumulation” and the “quantification of lipid accumulation during adipogenesis” value ([6]; ENOblock treatment with adipogenic cocktail) was “blocked lipid accumulation during adipogenesis”. The “binding of purified enolase to compound affinity matrix” value [7] was “purified human enolase binds to the ENOblock affinity matrix; also recorded: could bind to purified human enolase”, the “competition by free compound for purified enolase binding to ENOblock affinity matrix” value [7] was “inhibited purified enolase binding to the ENOblock affinity matrix” and the AKT expression [8] was “decreased the expression of AKT and Bcl-Xl”. The “competition by free compound for enolase binding to ENOblock affinity matrix” value [9] was “completely inhibited enolase binding to the ENOblock affinity matrix” and the “binding of lysate proteins/enolase to compound affinity matrix” value ([9]; silver stain, mass spectrometry) was “enolase in HCT116 cancer cell lysate binds to the ENOblock affinity matrix”.
